How the values were obtained:
[1] = target: T1, RORγt-LBD (Homo sapiens, UniProt P51449); assay: Time-resolved fluorescence resonance energy-transfer assay (TR-FRET), co-activator peptide recruitment; assay type: biochemical; set-up: TR-FRET Biochemical Amax: unit not given here; conditions: for EC50: His-RORγt-LBD 30 nM, SRC peptide 500 nM, agonistic activity, averages of one or more measurements, read-out: TR-FRET Biochemical EC50/; for TR-FRET Biochemical Amax: upper activation limit, His-RORγt-LBD, SRC peptide
T1 sequence (P51449 269-508 limits assumed): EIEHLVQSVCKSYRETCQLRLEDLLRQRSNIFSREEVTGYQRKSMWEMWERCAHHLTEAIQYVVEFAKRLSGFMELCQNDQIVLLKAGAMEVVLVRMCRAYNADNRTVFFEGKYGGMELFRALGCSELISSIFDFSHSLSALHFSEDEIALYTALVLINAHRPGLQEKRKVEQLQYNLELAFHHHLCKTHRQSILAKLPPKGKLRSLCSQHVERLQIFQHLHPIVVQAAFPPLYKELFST
How it was run: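 This agonist-mode TR-FRET used 30 nM His-tagged RORγt-LBD, 500 nM biotinylated SRC peptide, 0.25 nM Eu-anti-His and 5 nM APC-streptavidin in pH 7.0 Tris/KCl buffer with DTT and Triton. A 7-concentration, 5-fold compound series was incubated at 4 °C overnight plus 1 h at room temperature, and the 665/615 nm signal was read.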

[2] = target: T2, RORγt (Homo sapiens, UniProt P51449); assay: RORγt cellular reporter gene detection assay; assay type: cell-based; conditions: 24 hrs; for EC50: HEK 293 cells co-transfected with pFN26A-RORγt-LBD and pG14.35, in presence of antagonist Ursolic acid, top concentration 50 μM; for Cellular Reporter Assay Amax: upper activation limit, HEK 293 cells, in presence of antagonist Ursolic acid;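 as to Cellular Reporter Assay Amax: Ursolic Acid added as 5 µL of 20 µM medium per well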
T2 construct: The plasmid of pFN26A-RORγt-LBD and pG14.35 (Promega, Cat. No. E1370) were co-transfected into HEK 293 cells; expressed in transfected cells; host or cells: HEK 293 cells (Cat. No. GNHu18)
T2 sequence (P51449 269-508 limits assumed): T1 sequence (P51449 269-508 limits assumed)
How it was run: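 Compounds, titrated 4-fold from a 50 μM top concentration, were added with Ursolic acid to HEK293 cells carrying a RORγt-LBD plasmid and a reporter plasmid. After 24 h at 37° C, dual firefly/Renilla luciferase readout; four-parameter curves gave EC50 and maximal activation (Amax).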

EC50 [1] [nM] | TR-FRET Biochemical Amax [1] | EC50 [2] [nM] | Cellular Reporter Assay Amax [2] | SMILES
113 | 0.51 | 969 | 5.3 | C[C@]1(OCCC(=O)O)CCN2c3ccc(-c4cc(F)cc(OC(F)F)c4)cc3N(S(=O)(=O)c3cccc(C(F)(F)F)c3)C[C@@H]2C1 [Example 114, 3-(((6aS,8S)-3-(3-(difluoro-methoxy)-5-fluorophenyl)-8-methyl-5-((3-(trifluorometh-yl)phenyl)sulfonyl)-6,6a,7,8,9,10-hexahydro-5H-py-rido[1,2-a]quinoxalin-8-yl)oxy)propanoic acid]
67.9 | 0.71 | 178 | 5.4 | O=C(O)CCO[C@@H]1CCN2c3ccc(-c4cc(F)cc(OC(F)F)c4)cc3N(S(=O)(=O)c3cccc(C(F)(F)F)c3)C[C@@H]2C1 [Example 115, 3-(((6aS,8R)-3-(3-(difluorometh-oxy)-5-fluorophenyl)-5-((3-(tri-fluoromethyl)phenyl)sulfonyl)-6,6a,7,8,9,10-hexahydro-5H-pyrido[1,2-a]quinoxalin-8-yl)oxy)propanoic acid]
43.4 | 0.65 | 301 | 5.4 | O=C(O)[C@H]1CCN2c3ccc(-c4cc(F)cc(OC(F)F)c4)cc3N(S(=O)(=O)c3cccc(C(F)(F)F)c3)C[C@@H]2C1 [Example 116, (6aS,8S)-3-(3-(difluoromethoxy)-5-fluorophenyl)-5-((3-(trifluoromethyl)phenyl)sulfonyl)-6,6a,7,8,9,10-hexahydro-5H-pyrido[1,2-a]quinoxaline-8-carboxylic acid]
148 | – | 627 | – | O=C(O)[C@@H]1CCN2c3ccc(-c4cc(F)cc(OC(F)F)c4)cc3N(S(=O)(=O)c3cccc(C(F)(F)F)c3)C[C@@H]2C1 [Example 117, (6aS,8R)-3-(3-(difluoromethoxy)-5-fluorophenyl)-5-((3-(trifluoro-methyl)phenyl)sulfonyl)-6,6a,7,8,9,10-hexahydro-5H-pyri-do[1,2-a]quinoxaline-8-car-boxylic acid]
204 | 0.36 | 223 | 1.0 | CN1c2ccc(C3=CC(C)(C)OC(C)(C)C3)cc2N(S(=O)(=O)c2cccc(C(F)(F)F)c2)C[C@@H]1CCC(=O)O [Example 118, (S)-3-(1-methyl-6-(2,2,6,6-tetramethyl-3,6-dihydro-2H-pyran-4-yl)-4-((3-(trifluoromethyl)phenyl)sulfonyl)-1,2,3,4-tetrahydroquinoxalin-2-yl)propanoic acid]
31.5 | 0.41 | 295 | 1.1 | CN1c2ccc(C3CC(C)(C)OC(C)(C)C3)cc2N(S(=O)(=O)c2cccc(C(F)(F)F)c2)C[C@@H]1CCC(=O)O [Example 119, (S)-3-(1-methyl-6-(2,2,6,6-tetramethyltetrahydro-2H-pyran-4-yl)-4-((3-(trifluoromethyl)phenyl)sulfonyl)-1,2,3,4-tetrahydroquinoxalin-2-yl)propanoic acid]
64.9 | 1.07 | 157 | 5.7 | COC(=O)CC[C@H]1CN(S(=O)(=O)c2cccc(C(F)(F)F)c2)c2cc(/C=C(\C)c3c(F)cccc3Cl)ccc2N1C [Example 120, methyl (S,E)-3-(6-(2-(2-chloro-6-fluorophenyl)prop-1-en-1-yl)-1-methyl-4-((3-(trifluoromethyl)phenyl)sulfonyl)-1,2,3,4-tetrahydroquinoxalin-2-yl)propanoate]
12.1 | 0.98 | 378 | 2.4 | C/C(=C\c1ccc2c(c1)N(S(=O)(=O)c1cccc(C(F)(F)F)c1)C[C@@H]1C[C@](C)(OCCC(=O)O)CCN21)c1c(F)cccc1Cl [Example 121]
98.4 | 0.68 | 447 | 1.1 | C[C@@]1(OCCC(N)=O)CCN2c3ccc(-c4cc(F)cc(OC(F)F)c4)cc3N(S(=O)(=O)c3cccc(C(F)(F)F)c3)C[C@@H]2C1 [Example 122, 3-(((6aS,8R)-3-(3-(difluoromethoxy)-5-fluorophenyl)-8-methyl-5-((3-(trifluoromethyl)phenyl)sulfo-nyl)-6,6a,7,8,9,10-hexahydro-5H-pyrido[1,2-a]quinoxalin-8-yl)oxy) propanamide]
